Results taken from US8614201B2 (Janssen Pharmaceutica NV, priority 2009, dated 2013).

Biological target: Human TRPA1 (Homo sapiens, UniProt O75762)
Assay: Assay 1: In vitro cellular testing of TRPA1 modulation (CHO-TREx, Fluo-3 calcium fluorescence, AITC agonist)
Assay type: cell-based
Parameters: expressed in transfected cells; host or cells: CHO-TREx cells (Invitrogen), vector pcDNA4/TO
Settings: CHO-TREx cells expressing human TRPA1; Fluo-3 fluorescence (FLIPR/Tetra); agonist 15 μM allyl isothiocyanate (AITC); 30 minute antagonist incubation
Method in brief: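 Tetracycline-induced CHO-TREx cells stably expressing human TRPA1, loaded with 4 μM Fluo-3 AM, preincubated 30 min with compound (serial dilution typically from 10 μM, three-fold steps) in HEPES saline pH 7.4. Fluorescence change over 3 min after 15 μM AITC; IC50 from Hill fit versus no-antagonist and 10 μM ruthenium red controls.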

Human TRPA1, sequence (O75762 whole entry): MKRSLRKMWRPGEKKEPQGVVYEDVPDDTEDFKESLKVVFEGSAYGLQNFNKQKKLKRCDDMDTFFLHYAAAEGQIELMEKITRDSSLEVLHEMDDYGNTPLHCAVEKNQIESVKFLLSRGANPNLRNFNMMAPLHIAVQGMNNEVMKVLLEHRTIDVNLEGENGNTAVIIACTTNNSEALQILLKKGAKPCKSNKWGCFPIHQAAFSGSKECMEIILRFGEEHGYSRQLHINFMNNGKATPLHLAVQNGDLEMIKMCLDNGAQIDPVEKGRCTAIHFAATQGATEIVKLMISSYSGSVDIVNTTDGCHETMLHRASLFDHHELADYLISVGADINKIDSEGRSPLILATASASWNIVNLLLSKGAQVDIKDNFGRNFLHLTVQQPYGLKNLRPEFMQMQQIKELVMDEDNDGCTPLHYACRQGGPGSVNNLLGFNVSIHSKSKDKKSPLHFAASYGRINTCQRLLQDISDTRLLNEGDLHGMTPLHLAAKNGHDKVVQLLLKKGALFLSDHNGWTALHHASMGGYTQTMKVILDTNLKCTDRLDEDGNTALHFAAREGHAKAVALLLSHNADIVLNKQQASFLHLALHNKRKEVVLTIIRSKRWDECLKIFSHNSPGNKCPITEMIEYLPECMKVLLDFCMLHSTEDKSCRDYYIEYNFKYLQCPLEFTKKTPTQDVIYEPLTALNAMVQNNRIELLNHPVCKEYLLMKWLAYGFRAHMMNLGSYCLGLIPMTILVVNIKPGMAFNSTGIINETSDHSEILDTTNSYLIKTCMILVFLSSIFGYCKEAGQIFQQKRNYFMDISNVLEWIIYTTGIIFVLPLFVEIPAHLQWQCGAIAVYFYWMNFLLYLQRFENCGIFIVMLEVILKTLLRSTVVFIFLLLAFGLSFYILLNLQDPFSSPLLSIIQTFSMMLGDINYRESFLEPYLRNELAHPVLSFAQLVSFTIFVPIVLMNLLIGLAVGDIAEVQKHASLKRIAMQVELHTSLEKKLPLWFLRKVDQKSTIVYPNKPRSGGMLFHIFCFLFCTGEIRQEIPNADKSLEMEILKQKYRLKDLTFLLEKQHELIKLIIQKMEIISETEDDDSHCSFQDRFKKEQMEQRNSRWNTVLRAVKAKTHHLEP

SMILES	IC50
CN(C)c1cc(CNC(=O)[C@@H]2C=CCN2S(=O)(=O)c2ccc(Cl)s2)cc(-c2ccc(C(F)(F)F)cc2)n1 [Example 334, (2S)-1-[(5-Chlorothiophen-2-yl)sulfonyl]-N-({2-(dimethylamino)-6-[4-(trifluoromethyl)phenyl]pyridin-4-yl}methyl)-2,5-dihydro-1H-pyrrole-2-carboxamide]	2630 nM
CNc1cc(CNC(=O)[C@@H]2CCCN2S(=O)(=O)c2ccc(F)cc2)cc(-c2ccc(C(F)(F)F)cc2)n1 [Example 337, 1-[(4-Fluorophenyl)sulfonyl]-N-({2-(methylamino)-6-[4-(trifluoromethyl)phenyl]pyridin-4-yl}methyl)-L-prolinamide]	1010 nM
O=C(NCc1cc(-c2ccc(C(F)(F)F)cc2)nc(N2CCN(Cc3cccnc3)CC2)c1)[C@@H]1CCCN1S(=O)(=O)c1ccc(Cl)s1 [Example 341, 1-[(5-Chlorothiophen-2-yl)sulfonyl]-N-({2-[4-(pyridin-3-ylmethyl)piperazin-1-yl]-6-[4-(trifluoromethyl)phenyl]pyridin-4-yl}methyl)-L-prolinamide]	693 nM
O=C(NCc1cc(NCc2ccncc2)nc(-c2ccc(C(F)(F)F)cc2)c1)[C@@H]1CC(F)(F)CN1S(=O)(=O)c1ccc(F)cc1 [Example 343, 4,4-Difluoro-1-[(4-fluorophenyl)sulfonyl]-N-({2-[(pyridin-4-ylmethyl)amino]-6-[4-(trifluoromethyl)phenyl]pyridin-4-yl}methyl)-L-prolinamide]	1060 nM
O=C(NCc1cc(NCc2ccncc2)nc(-c2ccc(C(F)(F)F)cc2)c1)[C@@H]1C=CCN1S(=O)(=O)c1ccc(F)cc1 [Example 344, (2S)-1-[(4-Fluorophenyl)sulfonyl]-N-({2-[(pyridin-4-ylmethyl)amino]-6-[4-(trifluoromethyl)phenyl]pyridin-4-yl}methyl)-2,5-dihydro-1H-pyrrole-2-carboxamide]	> 10000 nM
O=C(NCc1cc(NCc2cccnc2)nc(-c2ccc(C(F)(F)F)cc2)c1)[C@@H]1C=CCN1S(=O)(=O)c1ccc(Cl)s1 [Example 345, (2S)-1-[(5-Chlorothiophen-2-yl)sulfonyl]-N-({2-[(pyridin-3-ylmethyl)amino]-6-[4-(trifluoromethyl)phenyl]pyridin-4-yl}methyl)-2,5-dihydro-1H-pyrrole-2-carboxamide]	2500 nM
O=C(NCc1cc(NCc2cccnc2)nc(-c2ccc(C(F)(F)F)cc2)c1)[C@@H]1C=CCN1S(=O)(=O)c1ccc(F)cc1 [Example 346, (2S)-1-[(4-Fluorophenyl)sulfonyl]-N-({2-[(pyridin-3-ylmethyl)amino]-6-[4-(trifluoromethyl)phenyl]pyridin-4-yl}methyl)-2,5-dihydro-1H-pyrrole-2-carboxamide]	> 10000 nM
O=C(NCc1cc(-c2ccc(C(F)(F)F)cc2)nc(N2CCN(Cc3ccccn3)CC2)c1)[C@@H]1CCCN1S(=O)(=O)c1ccc(F)cc1 [Example 348, 1-[(4-Fluorophenyl)sulfonyl]-N-({2-[4-(pyridin-2-ylmethyl)piperazin-1-yl]-6-[4-(trifluoromethyl)phenyl]pyridin-4-yl}methyl)-L-prolinamide]	1630 nM
CC(Nc1cc(CNC(=O)[C@@H]2CCCN2S(=O)(=O)c2ccc(F)cc2)cc(-c2ccc(C(F)(F)F)cc2)n1)c1cccnc1 (stereo partly drawn) [Example 349, 1-[(4-Fluorophenyl)sulfonyl]-N-({2-[(1-pyridin-3-ylethyl)amino]-6-[4-(trifluoromethyl)phenyl]pyridin-4-yl}methyl)-L-prolinamide]	1690 nM
CC(Nc1cc(CNC(=O)[C@@H]2C=CCN2S(=O)(=O)c2ccc(F)cc2)cc(-c2ccc(C(F)(F)F)cc2)n1)c1cccnc1 (stereo partly drawn) [Example 350, (2S)-1-[(4-Fluorophenyl)sulfonyl]-N-({2-[(1-pyridin-3-ylethyl)amino]-6-[4-(trifluoromethyl)phenyl]pyridin-4-yl}methyl)-2,5-dihydro-1H-pyrrole-2-carboxamide]	7260 nM

Compounds with a lower IC50, results first:

IC50	SMILES
518 nM	O=C(NCc1cc(NCc2ccccn2)nc(-c2ccc(C(F)(F)F)cc2)c1)[C@@H]1CCCN1S(=O)(=O)c1ccc(Cl)s1 [Example 347, 1-[(5-Chlorothiophen-2-yl)sulfonyl]-N-({2-[(pyridin-2-ylmethyl)amino]-6-[4-(trifluoromethyl)phenyl]pyridin-4-yl}methyl)-L-prolinamide]
382 nM	CN(C)c1cc(CNC(=O)[C@@H]2C=CCN2S(=O)(=O)c2ccc(F)cc2)cc(-c2ccc(C(F)(F)F)cc2)n1 [Example 338, (2S)—N-({2-(Dimethylamino)-6-[4-(trifluoromethyl)phenyl]pyridin-4-yl}methyl)-1-[(4-fluorophenyl)sulfonyl]-2,5-dihydro-1H-pyrrole-2-carboxamide]
296 nM	O=C(NCc1cc(-c2ccc(C(F)(F)F)cc2)nc(N2CCN(Cc3ccncc3)CC2)c1)[C@@H]1CCCN1S(=O)(=O)c1ccc(F)cc1 [Example 342, 1-[(4-Fluorophenyl)sulfonyl]-N-({2-[4-(pyridin-4-ylmethyl)piperazin-1-yl]-6-[4-(trifluoromethyl)phenyl]pyridin-4-yl}methyl)-L-prolinamide]
251 nM	O=C(NCc1cc(-c2ccc(C(F)(F)F)cc2)nc(N2CCN(Cc3ccccn3)CC2)c1)[C@@H]1CCCN1S(=O)(=O)c1ccc(Cl)s1 [Example 339, 1-[(5-Chlorothiophen-2-yl)sulfonyl]-N-({2-[4-(pyridin-2-ylmethyl)piperazin-1-yl]-6-[4-(trifluoromethyl)phenyl]pyridin-4-yl}methyl)-L-prolinamide]
210 nM	O=C(NCc1cc(-c2ccc(C(F)(F)F)cc2)nc(N2CCN(Cc3ccncc3)CC2)c1)[C@@H]1C=CCN1S(=O)(=O)c1ccc(Cl)s1 [Example 340, (2S)-1-[(5-Chlorothiophen-2-yl)sulfonyl]-N-({2-[4-(pyridin-4-ylmethyl)piperazin-1-yl]-6-[4-(trifluoromethyl)phenyl]pyridin-4-yl}methyl)-2,5-dihydro-1H-pyrrole-2-carboxamide]
179 nM	CNc1cc(CNC(=O)[C@@H]2CCCN2S(=O)(=O)c2ccc(Cl)s2)cc(-c2ccc(C(F)(F)F)cc2)n1 [Example 335, 1-[(5-Chlorothiophen-2-yl)sulfonyl]-N-({2-(methylamino)-6-[4-(trifluoromethyl)phenyl]pyridin-4-yl}methyl)-L-prolinamide]
113 nM	CC1CCCN1c1cc(CNC(=O)[C@@H]2CCCN2S(=O)(=O)c2ccc(F)cc2)cc(-c2ccc(C(F)(F)F)cc2)n1 (stereo partly drawn) [Example 336, 1-[(4-Fluorophenyl)sulfonyl]-N-({2-(2-methylpyrrolidin-1-yl)-6-[4-(trifluoromethyl)phenyl]pyridin-4-yl}methyl)-L-prolinamide]
73 nM	CC1CCCN1c1cc(CNC(=O)[C@@H]2CCCN2S(=O)(=O)c2ccc(Cl)s2)cc(-c2ccc(C(F)(F)F)cc2)n1 (stereo partly drawn) [Example 333, 1-[(5-Chlorothiophen-2-yl)sulfonyl]-N-({2-(2-methylpyrrolidin-1-yl)-6-[4-(trifluoromethyl)phenyl]pyridin-4-yl}methyl)-L-prolinamide]
58 nM	CN(C)c1cc(CNC(=O)[C@@H]2CCCN2S(=O)(=O)c2ccc(Cl)s2)cc(-c2ccc(C(F)(F)F)cc2)n1 [Example 332, 1-[(5-Chlorothiophen-2-yl)sulfonyl]-N-({2-(dimethylamino)-6-[4-(trifluoromethyl)phenyl]pyridin-4-yl}methyl)-L-prolinamide]
